The text below walks through data of patent US20120083522A1, “MODULATION OF INFLAMMATORY RESPONSES BY FACTOR XI” (Isis Pharmaceuitcals, inc., priority 2009, published 2012).

The test system of data set [1] is mouse Factor XI mRNA. In words: Cross-reactive antisense inhibition in primary mouse hepatocytes, 100 nM (Example 9). The format is cell-based. Conditions: approx. 24 h, percent inhibition relative to untreated control cells. How it is done: Antisense oligonucleotides targeted to a murine Factor XI nucleic acid were tested for their effects on Factor XI mRNA in vitro. Cultured primary mouse hepatocytes at a density of 10,000 cells per well were treated with 100 nM antisense oligonucleotide. After a treatment period of approximately 24 hours, RNA was isolated from the cells and mouse Factor XI mRNA levels were measured by quantitative real-time PCR. Factor XI mRNA levels were adjusted according to total RNA content, as measured by RIBOGREEN®. Results are presented as percent inhibition of Factor XI, relative to untreated control cells.
The chimeric antisense oligonucleotides in Tables 16 were designed as 5-10-5 MOE gapmers. The gapmers are 20 nucleotides in length, wherein the central gap segment is comprised of 10 2′-deoxynucleotides and is flanked on both sides (in the 5′ and 3′ directions) by wings comprising 5 nucleotides each. Each nucleotide in the 5′ wing segment and each nucleotide in the 3′ wing segment has a 2′-MOE modification. The internucleoside linkages throughout each gapmer are phosphorothioate (P═S) linkages. All cytidine residues throughout each gapmer are 5-methylcytidines. “Mouse target start site” indicates the 5′-most nucleotide to which the gapmer is targeted. “Mouse target stop site” indicates the 3′-most nucleotide to which the gapmer is targeted. All the mouse oligonucleotides listed show cross-reactivity between the mouse Factor XI mRNA (GENBANK Accession No. NM_028066.1), incorporated herein as SEQ ID NO: 6 and the human Factor XI mRNA (GENBANK Accession No. NM_000128.3), incorporated herein as SEQ ID NO: 1. “Human Target Start Site” indicates the 5′-most nucleotide in the human mRNA (GENBANK Accession No. NM_000128.3) to which the antisense oligonucleotide is targeted. “Human Target Stop Site” indicates the 3′-most nucleotide in the human mRNA (GENBANK Accession No. NM_000128.3) to which the antisense oligonucleotide is targeted. “Number of mismatches” indicates the mismatches between the mouse oligonucleotide and the human mRNA sequence.

The nature of data set [2]: Tolerability in CD1 mice: body and organ weights (Example 21). Conditions: 50 mg/kg s.c. twice per week for 6 weeks; for Body weight: increase over PBS control weight before start of treatment; for Kidney weight / Liver weight / Spleen weight: percentage of the body weight. It counts as in vivo.
Experimental: Body weight was measured at the onset of the study and subsequently twice per week. The body weights of the mice are presented in Table 87 and are expressed increase in grams over the PBS control weight taken before the start of treatment. Liver, spleen, and kidney weights were measured at the end of the study, and are also presented in Table 87 as percentage of the body weight.
Data set [3] in a line: Tolerability in CD1 mice: liver function (Example 21). On the set-up: Albumin: unit not given here. It counts as in vivo. Conditions: plasma, 50 mg/kg s.c. twice per week for 6 weeks.
The nature of data set [4]: Tolerability in CD1 mice: kidney function (Example 21). It counts as in vivo. Conditions: plasma, 50 mg/kg s.c. twice per week for 6 weeks.
Data set [5] in a line: Tolerability in CD1 mice: hematology assays (Example 21). Conditions: 50 mg/kg s.c. twice per week for 6 weeks. It counts as in vivo.
The nature of data set [6]: Tolerability in Sprague-Dawley rats: body and organ weights (Example 23). The format is in vivo. Conditions: 50 mg/kg s.c. twice per week for 6 weeks; for Body weight: increase over PBS control weight before start of treatment; for Kidney weight / Liver weight / Spleen weight: percentage of the body weight.
Data set [7] in a line: Tolerability in Sprague-Dawley rats: liver function (Example 23). The format is in vivo. Further details: Albumin: unit not given here. Conditions: plasma, 50 mg/kg s.c. twice per week for 6 weeks.
Data set [8] in a line: Tolerability in Sprague-Dawley rats: kidney function (Example 23). The format is in vivo. Conditions: for BUN: plasma; for Total urine protein / Urine protein/creatinine ratio: total urine samples.
Data set [9] is described as follows: Tolerability in Sprague-Dawley rats: hematology assays (Example 23). The format is in vivo. Further details: RBC / WBC / Neutrophil / Lymphocyte / Platelets: unit not given here. Conditions: blood.

In the oligonucleotide strings, read from the 5' end, every base follows the letter of its sugar. An asterisk marks phosphorothioate; unmarked linkages are phosphodiester. Other units and linkages are bracketed, terminal groups are in braces. A string of capitals states the bases alone. e = 2'-O-(2-methoxyethyl) (MOE); [5mC] = 5-methylcytosine; d = 2'-deoxy (DNA)

For the substance “404050 (antisense eT*eG*e[5mC]*eT*eT*dG*dA*dA*dG*dG*dA*dA*dT*dA*dT*e[5mC]*e[5mC]*eA*eG*eA) [compound 404050]”, the “Inhibition of mouse Factor XI mRNA levels (column headed SEQ ID No.)” value (“Inhibition … (column headed SEQ ID No.)” below) in data set [1] was 82.

Consider “404054 (antisense eT*eA*eG*eT*eT*d[5mC]*dA*dT*dG*d[5mC]*d[5mC]*d[5mC]*dT*dT*d[5mC]*eA*eT*eG*eT*e[5mC]) [compound 404054]”, for which, in data set [1], the “Inhibition … (column headed SEQ ID No.)” value was 45.

“404055 (antisense eT*eG*eT*eT*eA*dT*dA*dG*dT*dT*d[5mC]*dA*dT*dG*d[5mC]*e[5mC]*e[5mC]*eT*eT*e[5mC]) [compound 404055]”: in data set [1], the “Inhibition … (column headed SEQ ID No.)” value is 27.

As for “404066 (antisense eA*eA*eT*eG*eT*d[5mC]*d[5mC]*d[5mC]*dT*dG*dA*dT*dA*d[5mC]*dA*eA*eG*e[5mC]*e[5mC]*eA) [compound 404066]”, the “Inhibition … (column headed SEQ ID No.)” value in data set [1] is on record as 37.

Take “404067 (antisense eG*eG*eG*eA*eA*dA*dA*dT*dG*dT*d[5mC]*d[5mC]*d[5mC]*dT*dG*eA*eT*eA*e[5mC]*eA) [compound 404067]”: the “Inhibition … (column headed SEQ ID No.)” value in [1] is 39.

For the substance “404083 (antisense eT*eG*eT*eG*e[5mC]*dA*dG*dA*dG*dT*d[5mC]*dA*d[5mC]*d[5mC]*dT*eG*e[5mC]*e[5mC]*eA*eT) [compound 404083]”, the “Inhibition … (column headed SEQ ID No.)” value in [1] is given as 47.

Turning to “404087 (antisense eT*eT*e[5mC]*eT*eT*dG*dA*dA*d[5mC]*d[5mC]*d[5mC]*dT*dG*dA*dA*eG*eA*eA*eA*eG) [compound 404087]”, the “Inhibition … (column headed SEQ ID No.)” value in [1] was determined as 29.

With “404089 (antisense eT*eG*eA*eA*eT*dT*dA*dT*d[5mC]*dA*dT*dT*dT*d[5mC]*dT*eT*eG*eA*eA*e[5mC]) [compound 404089]”, the “Inhibition … (column headed SEQ ID No.)” value in data set [1] is on record as 6.

Turning to “404090 (antisense eT*eG*eA*eT*e[5mC]*dA*dT*dG*dA*dA*dT*dT*dA*dT*d[5mC]*eA*eT*eT*eT*e[5mC]) [compound 404090]”, in data set [1], the “Inhibition … (column headed SEQ ID No.)” value came out at 42.

In data set [2], “ACAGTTTCTGGCAGGCCTCG (antisense; all C 5-methyl, all phosphorothioate, sugars by position not given here; MOE gapmer, 5-10-5) [ISIS 412223, 5-10-5 MOE gapmer]” had a Body weight of 12 g, a Kidney weight of 1.5%, a Liver weight of 6% and a Spleen weight of 0.4%. In data set [3], this substance gave an ALT of 60 IU/L, an AST of 125 IU/L, an Albumin of 3.0 and a Bilirubin of 0.20 mg/dL. The same substance displayed a Cholesterol in data set [3] of 117 mg/dL. Further, the BUN in [4] is listed as 28 mg/dL. For the same substance, in data set [5], the HCT amounted to 48%, the Hemoglobin turned out to be 15 g/dL, the Lymphocyte is given as 4599 cells/μL and the Monocytes stood at 200 cells/μL. Moreover, in [5], the Neutrophil is 1756 cells/μL, the Platelets was 862 10^3/μL, the RBC is listed as 9 10^6/μL and the WBC was 7 10^3/μL. In data set [6], this substance gave a Body weight of 126 g, a Kidney weight of 1.0%, a Liver weight of 5% and a Spleen weight of 0.5%. For the same substance, in [7], the ALT came to 85 IU/L, the AST turned out to be 180 IU/L, the Albumin came out at 5 and the Bilirubin was found to be 0.14 mg/dL. Besides, in data set [8], the creatinine is 46 mg/dL, the BUN is given as 24 mg/dL, the Total urine protein was found to be 224 mg/dL and the Urine protein/creatinine ratio is given as 4.6. In data set [9], this substance had an HCT of 41%, a Hemoglobin of 13.1 g/dL, a Lymphocyte of 16990 and a Neutrophil of 1826. In [9], this substance had a Platelets of 567, an RBC of 7.2 and a WBC of 20.

For the substance “GCAGCGGACGGCATTGGTGC (antisense; all C 5-methyl, all phosphorothioate, sugars by position not given here; MOE gapmer, 5-10-5) [ISIS 412225, 5-10-5 MOE gapmer]”, in data set [2], the Body weight turned out to be 10 g, the Kidney weight is on record as 1.5%, the Liver weight is reported as 6% and the Spleen weight was determined as 0.4%. In [3], the ALT is listed as 40 IU/L, the AST worked out at 69 IU/L, the Albumin amounted to 3.3 and the Bilirubin was found to be 0.23 mg/dL. This substance also showed a Cholesterol in [3] of 128 mg/dL. This substance also registered a BUN in data set [4] of 23 mg/dL. In [5], this substance registered an HCT of 50%, a Hemoglobin of 15 g/dL, a Lymphocyte of 4969 cells/μL and a Monocytes of 293 cells/μL. Moreover, in [5], the Neutrophil amounted to 1547 cells/μL, the Platelets is given as 574 10^3/μL, the RBC is reported as 9 10^6/μL and the WBC was 7 10^3/μL. Moreover, in [6], the Body weight came to 184 g, the Kidney weight was determined as 1.0%, the Liver weight turned out to be 4% and the Spleen weight is 0.5%. In [7], this substance returned an ALT of 48 IU/L, an AST of 108 IU/L, an Albumin of 5 and a Bilirubin of 0.15 mg/dL. For the same substance, in data set [8], the creatinine turned out to be 58 mg/dL, the BUN is 23 mg/dL, the Total urine protein is reported as 209 mg/dL and the Urine protein/creatinine ratio came out at 4.0. Further, in data set [9], the HCT worked out at 42%, the Hemoglobin stood at 13.4 g/dL, the Lymphocyte was 13204 and the Neutrophil is 1499. In [9], this substance displayed a Platelets of 673, an RBC of 7.4 and a WBC of 15.

In data set [2], “GCATTGGTGCACAGTTTCTG (antisense; all C 5-methyl, all phosphorothioate, sugars by position not given here; MOE gapmer, 5-10-5) [ISIS 412224, 5-10-5 MOE gapmer]” registered a Body weight of 10 g, a Kidney weight of 1.6%, a Liver weight of 6% and a Spleen weight of 0.5%. For the same substance, in data set [3], the ALT was found to be 214 IU/L, the AST turned out to be 183 IU/L, the Albumin stood at 3.4 and the Bilirubin amounted to 0.19 mg/dL. Further, the Cholesterol in data set [3] is on record as 114 mg/dL. The substance further displayed a BUN in data set [4] of 29 mg/dL. In data set [5], this substance came in with an HCT of 50%, a Hemoglobin of 15 g/dL, a Lymphocyte of 6284 cells/μL and a Monocytes of 195 cells/μL. In data set [5], the Neutrophil was 2107 cells/μL, the Platelets is reported as 647 10^3/μL, the RBC was 10 10^6/μL and the WBC is 9 10^3/μL. In [6], this substance displayed a Body weight of 165 g, a Kidney weight of 1.0%, a Liver weight of 5% and a Spleen weight of 0.5%. In data set [7], the ALT is listed as 84 IU/L, the AST is on record as 132 IU/L, the Albumin is recorded as 4 and the Bilirubin was determined as 0.12 mg/dL. Also, in data set [8], the creatinine is 44 mg/dL, the BUN was 24 mg/dL, the Total urine protein is 171 mg/dL and the Urine protein/creatinine ratio is on record as 3.8. Besides, in [9], the HCT is 42%, the Hemoglobin is on record as 13.4 g/dL, the Lymphocyte stood at 16807 and the Neutrophil turned out to be 1865. In data set [9], this substance registered a Platelets of 685, an RBC of 7.4 and a WBC of 20.
